# Experimental data published in paper PMC12257413, “Discovery of a Novel sp^3‑Rich M1 Positive Allosteric Modulators (PAMs) Chemotype via Scaffold Hopping” (ACS Medicinal Chemistry Letters, 2025).
# How the values were obtained:
# ElogD 7.4 = type: physicochemical; conditions: pH 7.4
# Source text: 4 Detailed In Vitro and In Vivo Profiles for Selected M1 PAMs ^a | column: 17k; 17g
# [1] = Intrinsic clearance in human hepatic microsomes, predicted hepatic clearance; type: in vitro ADME; conditions: predicted hepatic clearance from human hepatic microsomes
# Protocol: A similar approach was used to determine the degree of brain homogenate binding, which employed the same methodology and procedure with the following modifications: 1) a final compound concentration of 1 μM was used, 2) naïve rat brains were homogenized in DPBS (1:3 composition of brain: DPBS, w/w) using a Mini-Bead Beater™ machine in order to obtain brain homogenate, which was then treated in the same manner as the plasma samples in the previously described plasma protein binding assay. […]
# same manner as the plasma samples in the previously described plasma protein binding assay. Fraction unbound for both plasma and brain samples was determined using Equation 4.
# Equation 4 Determination of fraction unbound in plasma.
# The diluted fraction unbound (fu2) in brain was calculated in the same manner by using brain homogenate rather than plasma. Undiluted fraction unbound for the brain was calculated using Equation 5 […]
# Equation 5 Determination of fraction unbound in brain. […]
# Human or rat hepatic microsomes (0.5 mg/mL) and 1 µM test compound were incubated in 100 mM potassium phosphate pH 7.4 buffer with 3 mM MgCl 2 at 37 °C with constant shaking. […] The in vitro half-life (1/2, min, Eq. 1), intrinsic clearance (CL int, mL/min/kg, Eq. 2), and subsequent predicted hepatic clearance (CLhep, mL/min/kg, Eq. 3) was determined employing the following equations: […]
# [2] = Plasma protein binding by equilibrium dialysis, human plasma; type: in vitro ADME; conditions: fraction unbound in human plasma
# Protocol: (§1) for 2 seconds (excitation, 480 nm; emission, 530 nm), first add occurred by adding 20 µL of test compound to the cells, and the response was measured for 140 seconds. This is followed by second add; 10 µL (5X) of an EC20 concentration of ACh agonist was added to the cells, and the response of the cells was measured for 125 seconds. Immediately, the third add occurred by adding 12 ul assay buffer or 5X of an EC max concentration of ACh and the response of the cells was measured for 90 seconds. Assay buffer was added to the wells that incubated with compounds followed by EC20 concentration of ACh. […] Calcium fluorescence was recorded as fold over basal fluorescence and raw data were normalized to the maximal response to ACh agonist. Potency (EC50) and maximum response (% ACh Max) for compounds was determined using a four -parameter logist ical equation using GraphPad Prism (La Jolla, CA) or the Dotmatics software platform ( Woburn, MA) : […]
# (§2) The protein binding of each compound was determined in plasma via equilibrium dialysis employing rapid equilibrium dialysis (RED) plates (ThermoFisher Scientific, Rochester, NY). […]
# (§3) same manner as the plasma samples in the previously described plasma protein binding assay. Fraction unbound for both plasma and brain samples was determined using Equation 4. […]
# [3] = Plasma protein binding by equilibrium dialysis, rat plasma; type: in vitro ADME; conditions: fraction unbound in rat plasma
# Protocol: as §1, §2, §3
# [4] = Rat in vivo PK (PK/PBL cassette); conditions: for AUC / MRT / half-life / Vd: plasma; for clearance: plasma clearance, read-out: CLp; for Vd: read-out: Vss
# Source text: 4 Detailed In Vitro and In Vivo Profiles for Selected M1 PAMs ^a | column: Property; 17k; 17g
Compound,chromatographic logD (ElogD 7.4),Human CLHEP [1] [mL/min/kg],Human fuplasma [2],Rat fuplasma [3],AUC [4] [ng·h/mL],MRT [4] [min],half-life [4] [min],clearance [4] [mL/min/kg],Vd [4] [L/kg]
Cn1cc(-c2ccc(Cc3cc(C(=O)N[C@H]4CCCC[C@@H]4O)nn3C3CCCC3)cc2)cn1 [17k],4.15,14.3,0.01,0.03,74.4,39,37.8,56,2.2
Cn1cc(-c2ccc(Cc3cc(C(=O)N[C@H]4CCOC[C@@H]4O)nn3C3CCCC3)cc2)cn1 [17g],3.05,6.7,0.08,0.08,160,76.8,72.6,20.8,1.59
